Target: T1, BRD4 (Homo sapiens, UniProt O60885)
T1 construct: His-tagged BRD4-BD1 (bromodomain 1)
Test: TR-FRET (HTRF) displacement of biotin-labeled peptide ligand from BRD4-BD1; single dose, […]
Type: biochemical
Conditions: read-out: Inhibition Rate / 10 μM

Row | SMILES | inhibition at 10 µM [%]
1 | O=C1CC[C@]2(O)c3c(ccc(O)c31)-c1ccc(O)c3c1C2[C@@H](O)[C@@H](Cl)[C@H]3O (stereo partly drawn) [compound 1, 12β-Chloro-3,9α,11β,13β,16-pentahydroxy-8,9,10,11,12,13-hexahydro-6(7H)-one] | 57.7
2 | O=C1C=Cc2c3c4c(c(O)ccc4c4ccc(O)c1c24)[C@H](O)[C@H](O)[C@H]3O [compound 2, 3,11α,12β,13β,16-Pentahydroxy-11,12-dihydroperylen-6(13H)-one] | 88.1

Source: publication PMC5367033, “Inhibitors of BRD4 Protein from a Marine-Derived Fungus Alternaria sp. NH-F6” (Marine Drugs, 2017)
